Assay results as given in ChEMBL document CHEMBL2311517, “Novel route to chaetomellic acid A and analogues: serendipitous discovery of a more competent FTase inhibitor” (Bioorg Med Chem, 2013).
Where a SMILES comes first, the peptide text is derived from it. The star is where a group is joined. Dansyl = CN(C)c1cccc2c(S(=O)(=O)*)cccc12

Legend:
[1] = Inhibition of rat farnesyltransferase using dansyl-GCVIA as substrate preincubated for 5 mins measured over 300 secs by continuous fluorescence assay
[2] = Inhibition of yeast farnesyltransferase using dansyl-GCVIA as substrate preincubated for 5 mins measured over 300 secs by continuous fluorescence assay; design: species or system Saccharomyces cerevisiae
Rattus norvegicus [3] = species on record: Rattus norvegicus; assay: Activity of rat farnesyltransferase
Rattus norvegicus [4] = species on record: Rattus norvegicus; assay: Ratio of […] to Km for rat farnesyltransferase

| kcat (Rattus norvegicus [3]) [s⁻¹] | kcat/Km (Rattus norvegicus [4]) [mM⁻¹ s⁻¹] | Structure (SMILES) | IC50 [1] [nM] | IC50 [2] [µM] |
| --- | --- | --- | --- | --- |
| – | – | C=CCCCCCCC/C(C(=O)O)=C(\C)C(=O)O | 490 | 13.4 |
| – | – | CC(C)=CCC/C(C)=C/CC/C(C)=C/C/C(C(=O)O)=C(\C)C(=O)O | – | 2.4 |
| – | – | CCCCCCCCCCCCCC/C(C(=O)O)=C(\C)C(=O)O | 910 | 16 |
| – | – | CCCCCCCCCCCCCCCC/C(C(=O)O)=C(\C)C(=O)O | 2600 | 65.6 |
| – | – | CCCCCCCCCCCC/C(C(=O)O)=C(\C)C(=O)O [CHAETOMELLIC ACID C] | – | 4 |
| 0.4 | 170 | CC(C)C[C@H](NC(=O)[C@@H](NC(=O)[C@H](CS)NC(=O)CNS(=O)(=O)c1cccc2c(N(C)C)cccc12)C(C)C)C(=O)N[C@@H](CO)C(=O)O (Dansyl-GCVLS-OH) | – | – |
| > 0.2 | 120 | CC[C@H](C)[C@H](NC(=O)[C@@H](NC(=O)[C@H](CS)NC(=O)CNS(=O)(=O)c1cccc2c(N(C)C)cccc12)C(C)C)C(=O)N[C@@H](C)C(=O)O (Dansyl-GCVIA-OH) | – | – |
| – | – | CCCCSCCCCCCCCC/C(C(=O)O)=C(\C)C(=O)O | 190 | 3.5 |
